In paper PMC6750704 (Journal of medicinal chemistry, 2019):

System: paradoxical MEK/ERK pathway activation in NRAS Q61K Sbcl2 melanoma cells
Experiment: Vemurafenib induced paradoxical MEK/ERK activation, Western blotting
Type: cell-based, human
Settings: 1 μM, control peptide treated Sbcl2 cells

CCCS(=O)(=O)Nc1ccc(F)c(C(=O)c2c[nH]c3ncc(-c4ccc(Cl)cc4)cc23)c1F [vemurafenib]
effect on pMEK and pERK levels: induces paradoxical MEK/ERK pathway activation
